Where two headings read alike, the source gives them in different places.
What was measured:
in vitro [1] = settings: human
HCV = settings: cited from earlier work
HCV reporter virus JcR2a = type: cell-based, hepatitis C virus; settings: HCV infection system, Huh7-derived cells expressing CD81
[2] = tested on: HA-nsp3-4-V5-induced DMVs; type: cell-based
PI4P = type: cell-based; settings: Huh7-Lunet/T7 cells expressing HCV NS3-5B, 1 µM for 2 h
SARS-CoV-2 [3] = tested on: SARS-CoV-2
PI3P = type: cell-based
SARS-CoV-2 [4] = test: qRT-PCR-based SARS-CoV-2 replication assay in Calu-3 cells; type: cell-based
SARS-CoV-2 [5] = test: microbe, parasite or virus in culture; settings: Severe acute respiratory syndrome coronavirus 2, A549-ACE2, read-out: EC50, SARS-CoV-2
in vitro [6] = settings: human; remark: listed apart in the source
in vitro [7] = settings: human; remark: listed apart in the source

With CCC(CC)COC(=O)[C@H](C)N[P@](=O)(OC[C@H]1O[C@@](C#N)(c2ccc3c(N)ncnn23)[C@H](O)[C@@H]1O)Oc1ccccc1 [Remdesivir] the CC50 (in vitro [1]) was greater than 10000 nM.

For Cn1cnc(N)c2ncnc1-2 [3-methyladenine], the “abundance of LC3-II in HCV-infected cells” value (HCV; PI3K inhibitor, ref Su et al., 2011) is listed as “reduces”.

For COC[C@H]1OC(=O)c2coc3c2[C@@]1(C)C1=C(C3=O)[C@@H]2CCC(=O)[C@@]2(C)C[C@H]1OC(C)=O [wortmannin], the HCV replication (HCV; inhibition of PI3K activity, ref Mohl et al., 2016) is given as “impairs”.

In the case of Nc1ncc(-c2ccnc(Nc3ccncc3)n2)c(CC2CC2)n1 [PIK-III], the “selectivity index (ratio of EC50 and CC50)” value (HCV reporter virus JcR2a) is reported as greater than 10, the “number of HA-nsp3-4-V5-induced DMVs” value [2] is reported as “significantly reduced” and the “elevation of PI4P (PI4P puncta)” value (PI4P) is reported as “no effect”. The “fold by which EC50 is below the CC50 value” (SARS-CoV-2 [3]; A549/ACE2 cells) was no less than 250 fold, the EC50 (SARS-CoV-2 [3]; read-out: EC50, SARS-CoV-2) was 172 nM and the “abundance of GFP-DFCP1 puncta in SARS-CoV-2-infected cells” value (PI3P) was “reduced”. The “abundance of GFP-DFCP1 puncta in starved cells” value (PI3P) was “reduced to background levels”, the “number of GFP-DFCP1 puncta in HCV-replicating cells” value (PI3P) was “diminished” and the “cell viability in HCV NS3-5B-transfected cells” value (Huh7-Lunet/T7 cells) was “neither affected”. For the same molecule, the “cell viability in SARS-CoV-2 HA-nsp3-4-V5-transfected cells” value (Huh7-Lunet/T7 cells) was “did not affect”, the SARS-CoV-2 replication efficiency (SARS-CoV-2 [4]) was “inhibition” and the EC50 (SARS-CoV-2 [5]) was roughly 170 nM.

For COC(=O)N[C@H](C(=O)N1CCC[C@H]1c1nc(-c2ccc(-c3ccc(-c4c[nH]c([C@@H]5CCCN5C(=O)[C@@H](NC(=O)OC)C(C)C)n4)cc3)cc2)c[nH]1)C(C)C [Daclatasvir], the CC50 (in vitro [6]) is listed as greater than 25 nM, the DMV formation (HCV; NS5A inhibitor, ref Berger et al., 2014) is listed as “block” and the “number of GFP-DFCP1 puncta in NS3-5B-expressing cells (NS5A wildtype)” value (PI3P) is listed as “blunted”. For the same molecule, the “reduction of GFP-DFCP1 abundance in cells expressing NS3-5B with NS5A Y93H” value (PI3P) was “not observed” and the CC50 (in vitro [7]) was greater than 25 nM.
